Reference: patent US20260092071A1, “COMPOUNDS AND COMPOSITIONS AS SMARCA2/4 DEGRADERS AND USES THEREOF” (REGENTS OF THE UNIVERSITY OF MICHIGAN, priority 2022, published 2026)

How the values were obtained:
SMARCA2 = SMARCA2 (Homo sapiens, UniProt P51531); experiment: HiBit assay in engineered HT1080 CRISPR knock-in cell, 6 hrs (B series), SMARCA2; assay type: cell-based; conditions: 6 hrs incubation; for DC50: HT1080 CRISPR knock-in cells, read-out: SMARC A2 HT1080 HiBit DC50; for Dmax: HT-1080, HT1080 CRISPR knock-in cells, read-out: SMARC A2 HT1080 HiBit Dmax (%)
Method: (§1) The HiBit assay was performed using engineered HT1080 CRISPR knock-in cell utilizing the Nano-Glo HiBiT Lytic Detection System from Promega, Cat #N3040. Compounds were transferred, 25 nL DMSO or test compounds (final DMSO @ 0.1%) to intermediate plates (Corning3570) using ECHO550. Cells were seeded onto compounds at 2000 cells/25 μL/well and incubated for 6 hrs in a tissue culture incubator at 37° C. and 5% CO2. The LgBiT Protein was diluted at 1:100 and the Nano-Glo® HiBIT Lytic Substrate 1:50 into an appropriate volume of room temperature using the Nano-Glo® HiBiT Lytic Buffer. At the end of compound incubation time, 15 ul of the detection reagent was added to each well (without LgBiT for negative control wells) using the Thermo Scientific multidrop combi. The plate was shaken for 10 mins at RT using Combi. After briefly centrifugation (2000 rpm 1 mins), plate was read on Envision (Ultrasensitive luminescence model).

SMARCA4 = SMARCA4 (Homo sapiens, UniProt P51532); experiment: HiBit assay in engineered HT1080 CRISPR knock-in cell, 6 hrs (B series), SMARCA4; assay type: cell-based; conditions: 6 hrs incubation; for DC50: HT1080 CRISPR knock-in cells, read-out: SMARC A4 HT1080 HiBit DC50; for Dmax: HT-1080, HT1080 CRISPR knock-in cells, read-out: SMARC A4 HT1080 HiBit Dmax(%)
Method: as §1

Chain of SMARCA4 (P51532 whole entry): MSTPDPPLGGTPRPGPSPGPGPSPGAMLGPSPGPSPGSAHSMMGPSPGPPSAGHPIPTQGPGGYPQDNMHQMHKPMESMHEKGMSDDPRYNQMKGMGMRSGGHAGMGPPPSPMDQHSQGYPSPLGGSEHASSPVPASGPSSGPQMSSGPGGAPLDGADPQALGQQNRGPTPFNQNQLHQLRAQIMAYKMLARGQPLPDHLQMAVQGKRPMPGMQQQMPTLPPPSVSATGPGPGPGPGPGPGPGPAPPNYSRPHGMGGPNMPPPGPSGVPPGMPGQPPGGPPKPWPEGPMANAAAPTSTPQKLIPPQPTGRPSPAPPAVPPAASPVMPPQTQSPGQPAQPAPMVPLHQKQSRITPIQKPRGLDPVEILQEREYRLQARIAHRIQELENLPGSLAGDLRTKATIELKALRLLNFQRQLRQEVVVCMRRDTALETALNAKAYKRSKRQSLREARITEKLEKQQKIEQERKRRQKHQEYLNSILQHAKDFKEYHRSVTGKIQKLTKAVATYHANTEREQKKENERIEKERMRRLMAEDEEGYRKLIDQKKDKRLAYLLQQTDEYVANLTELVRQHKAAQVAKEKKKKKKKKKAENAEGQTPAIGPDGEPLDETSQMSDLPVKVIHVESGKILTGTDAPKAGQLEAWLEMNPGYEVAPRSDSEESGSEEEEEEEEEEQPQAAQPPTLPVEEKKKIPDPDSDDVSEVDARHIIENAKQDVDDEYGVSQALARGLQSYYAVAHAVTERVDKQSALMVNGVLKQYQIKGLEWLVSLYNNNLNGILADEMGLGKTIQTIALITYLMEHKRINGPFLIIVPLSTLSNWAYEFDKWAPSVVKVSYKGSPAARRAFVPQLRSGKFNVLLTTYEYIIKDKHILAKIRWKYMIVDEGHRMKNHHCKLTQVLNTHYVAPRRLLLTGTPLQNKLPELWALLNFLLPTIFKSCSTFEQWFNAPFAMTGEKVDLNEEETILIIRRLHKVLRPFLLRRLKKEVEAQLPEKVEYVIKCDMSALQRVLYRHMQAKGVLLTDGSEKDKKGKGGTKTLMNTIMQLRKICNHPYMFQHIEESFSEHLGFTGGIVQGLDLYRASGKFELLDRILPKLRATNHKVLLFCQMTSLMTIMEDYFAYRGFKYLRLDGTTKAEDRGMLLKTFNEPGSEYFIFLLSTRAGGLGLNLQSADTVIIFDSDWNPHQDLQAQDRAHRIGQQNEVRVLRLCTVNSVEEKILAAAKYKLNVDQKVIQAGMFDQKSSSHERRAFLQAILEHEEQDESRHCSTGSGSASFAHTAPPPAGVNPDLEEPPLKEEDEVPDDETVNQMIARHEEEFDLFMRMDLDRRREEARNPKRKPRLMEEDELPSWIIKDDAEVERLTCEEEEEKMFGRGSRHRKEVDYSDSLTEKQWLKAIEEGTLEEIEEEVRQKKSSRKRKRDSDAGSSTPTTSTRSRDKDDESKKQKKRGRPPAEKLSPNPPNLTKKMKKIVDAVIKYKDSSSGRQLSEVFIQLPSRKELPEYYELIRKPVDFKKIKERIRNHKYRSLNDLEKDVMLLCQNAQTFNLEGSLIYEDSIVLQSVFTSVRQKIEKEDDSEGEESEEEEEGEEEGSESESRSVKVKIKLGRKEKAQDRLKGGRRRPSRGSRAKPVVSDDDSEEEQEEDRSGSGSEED
Chain of SMARCA2 (P51531 whole entry): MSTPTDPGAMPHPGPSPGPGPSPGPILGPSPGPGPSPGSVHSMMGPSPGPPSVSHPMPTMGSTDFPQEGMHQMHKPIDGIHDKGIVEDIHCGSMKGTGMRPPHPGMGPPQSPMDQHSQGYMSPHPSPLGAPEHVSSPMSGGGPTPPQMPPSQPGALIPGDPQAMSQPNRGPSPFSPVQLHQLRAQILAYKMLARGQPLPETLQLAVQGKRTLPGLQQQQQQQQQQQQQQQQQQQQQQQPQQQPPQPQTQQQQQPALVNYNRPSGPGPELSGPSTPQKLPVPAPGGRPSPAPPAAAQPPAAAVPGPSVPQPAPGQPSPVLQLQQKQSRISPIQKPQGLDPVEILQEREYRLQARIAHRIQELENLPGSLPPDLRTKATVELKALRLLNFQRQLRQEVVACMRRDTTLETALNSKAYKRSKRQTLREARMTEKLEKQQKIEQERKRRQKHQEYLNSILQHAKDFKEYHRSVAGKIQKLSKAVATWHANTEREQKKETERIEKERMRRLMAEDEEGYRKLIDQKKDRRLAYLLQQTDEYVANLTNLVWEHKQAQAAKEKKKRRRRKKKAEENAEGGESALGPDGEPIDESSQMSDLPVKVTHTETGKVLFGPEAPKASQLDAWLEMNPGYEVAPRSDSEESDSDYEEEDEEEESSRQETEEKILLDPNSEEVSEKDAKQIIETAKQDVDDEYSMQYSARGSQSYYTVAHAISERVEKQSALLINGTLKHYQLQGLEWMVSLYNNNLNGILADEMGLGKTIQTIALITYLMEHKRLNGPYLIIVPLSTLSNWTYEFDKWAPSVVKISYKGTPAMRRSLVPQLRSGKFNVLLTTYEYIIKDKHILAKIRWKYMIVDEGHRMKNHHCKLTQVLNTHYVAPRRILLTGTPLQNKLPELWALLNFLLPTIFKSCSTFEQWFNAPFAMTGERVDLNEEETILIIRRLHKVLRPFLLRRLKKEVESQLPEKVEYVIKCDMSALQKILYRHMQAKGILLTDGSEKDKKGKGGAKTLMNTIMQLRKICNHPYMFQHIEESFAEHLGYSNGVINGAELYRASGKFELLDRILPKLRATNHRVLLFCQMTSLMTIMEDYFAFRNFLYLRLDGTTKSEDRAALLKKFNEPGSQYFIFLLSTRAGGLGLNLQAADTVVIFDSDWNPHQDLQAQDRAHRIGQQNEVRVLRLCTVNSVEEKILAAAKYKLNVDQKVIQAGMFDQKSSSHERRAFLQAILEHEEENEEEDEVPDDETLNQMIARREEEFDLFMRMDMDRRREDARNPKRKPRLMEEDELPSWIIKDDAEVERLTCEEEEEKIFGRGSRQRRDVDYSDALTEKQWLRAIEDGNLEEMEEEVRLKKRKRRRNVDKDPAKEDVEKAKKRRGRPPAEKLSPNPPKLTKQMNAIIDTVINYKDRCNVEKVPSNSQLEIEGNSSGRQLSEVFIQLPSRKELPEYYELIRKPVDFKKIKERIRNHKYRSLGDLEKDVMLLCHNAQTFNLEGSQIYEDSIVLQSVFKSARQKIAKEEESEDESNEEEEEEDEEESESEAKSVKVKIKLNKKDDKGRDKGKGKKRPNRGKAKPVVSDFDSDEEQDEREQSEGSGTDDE

Q: Which DC50 (SMARCA2) does the source give for `Cc1ncsc1-c1ccc([C@H](C)NC(=O)[C@@H]2C[C@@H](O)CN2C(=O)[C@@H](NC(=O)C23CC(CN4CCC(c5ccc6c(c5)C(C)(C)c5nc(=O)c7c(Cl)cccc7n5-6)CC4)(C2)C3)C(C)(C)C)cc1` [Compound B23, (2S,4R)-1-((S)-2-(3-((4-(4-chloro-7,7-dimethyl-5-oxo-5,7-dihydroindolo[1,2-a]quinazolin-9-yl)piperidin-1-yl)methyl)bicyclo[1.1.1]pentane-1-carboxamido)-3,3-dimethylbutanoyl)-4-hydroxy-N-((S)-1-(4-(4-methylthiazol-5-yl)phenyl)ethyl)pyrrolidine-2-carboxamide] here?
A: The DC50 was less than 100 nM.

Q: And the Dmax (SMARCA2)?
A: The Dmax was greater than 90%.

Q: And the DC50 (SMARCA4)?
A: Its DC50 is less than 100 nM.

Q: And the Dmax (SMARCA4)?
A: The Dmax was 70 to 90%.

Q: Which DC50 (SMARCA2) does the source give for `Cc1ncsc1-c1ccc([C@H](C)NC(=O)[C@@H]2C[C@@H](O)CN2C(=O)[C@H](C(C)C)n2cc([C@H]3CC[C@H](CN4CCC(c5cccc6c5C(C)(C)c5nc(=O)c7c(Cl)cccc7n5-6)CC4)CC3)nn2)cc1` [Compound B107, (2S,4R)-1-((S)-2-(4-((1r,4S)-4-((4-(4-chloro-7,7-dimethyl-5-oxo-5,7-dihydroindolo[1,2-a]quinazolin-8-yl)piperidin-1-yl)methyl)cyclohexyl)-1H-1,2,3-triazol-1-yl)-3-methylbutanoyl)-4-hydroxy-N-((S)-1-(4-(4-methylthiazol-5-yl)phenyl)ethyl)pyrrolidine-2-carboxamide] here?
A: The DC50 was less than 100 nM.

Q: And the Dmax (SMARCA2)?
A: Its Dmax is greater than 90%.

Q: What about the DC50 (SMARCA4) of the same compound?
A: The DC50 was less than 100 nM.

Q: What about the Dmax (SMARCA4) of the same compound?
A: The Dmax was greater than 90%.

Q: Which results are given for `Cc1ncsc1-c1ccc([C@H](CN2CCOCC2)NC(=O)[C@@H]2C[C@@H](O)CN2C(=O)[C@@H](c2cc(O[C@H]3CC[C@H](CN4CCC(c5ccc6c(c5)-n5c(nc(=O)c7c(Cl)cccc75)C65CCCCC5)CC4)CC3)no2)C(C)C)cc1` [Compound B158, (2S,4R)-1-((R)-2-(3-(((11,4R)-4-((4-(4′-chloro-5′-oxo-5′H-spiro[cyclohexane-1,7′-indolo[1,2-a]quinazolin]-10′-yl)piperidin-1-yl)methyl)cyclohexyl)oxy)isoxazol-5-yl)-3-methylbutanoyl)-4-hydroxy-N-((R)-1-(4-(4-methylthiazol-5-yl)phenyl)-2-morpholinoethyl)pyrrolidine-2-carboxamide]?
A: DC50 (SMARCA2): < 100 nM; Dmax (SMARCA2): > 90%; DC50 (SMARCA4): < 100 nM; Dmax (SMARCA4): > 90%

Q: `Cc1ncsc1-c1ccc([C@H](CCCCCN2CCC(c3ccc4c(c3)C(C)(C)c3nc(=O)c5c(Br)cccc5n3-4)CC2)NC(=O)[C@@H]2C[C@@H](O)CN2C(=O)[C@@H](NC(=O)C2(C#N)CC2)C(C)(C)C)cc1` [Compound B3, (2S,4R)—N—((S)-6-(4-(4-bromo-7,7-dimethyl-5-oxo-5,7-dihydroindolo[1,2-a]quinazolin-9-yl)piperidin-1-yl)-1-(4-(4-methylthiazol-5-yl)phenyl)hexyl)-1-((S)-2-(1-cyanocyclopropane-1-carboxamido)-3,3-dimethylbutanoyl)-4-hydroxypyrrolidine-2-carboxamide] was tested. Which DC50 (SMARCA2) did it give?
A: The DC50 was less than 100 nM.

Q: What about the Dmax (SMARCA2) of the same compound?
A: The Dmax was greater than 90%.

Q: What about the DC50 (SMARCA4) of the same compound?
A: Its DC50 is less than 100 nM.

Q: What about the Dmax (SMARCA4) of the same compound?
A: The Dmax was greater than 90%.

Q: What does the source list for `C[C@H](NC(=O)[C@@H]1C[C@@H](O)CN1C(=O)[C@@H](n1cc([C@H]2CC[C@H](CN3CCC(c4ccc5c(c4)-n4c(nc(=O)c6c(Cl)cccc64)C5(C)C)CC3)CC2)nn1)C(C)(C)C)c1ccc(-c2scnc2C#N)cc1` [Compound B141, (2S,4R)-1-((S)-2-(4-((1r,4S)-4-((4-(4-chloro-7,7-dimethyl-5-oxo-5,7-dihydroindolo[1,2-a]quinazolin-10-yl)piperidin-1-yl)methyl)cyclohexyl)-1H-1,2,3-triazol-1-yl)-3,3-dimethylbutanoyl)-N-((S)-1-(4-(4-cyanothiazol-5-yl)phenyl)ethyl)-4-hydroxypyrrolidine-2-carboxamide]?
A: DC50 (SMARCA2): < 100 nM; Dmax (SMARCA2): > 90%; DC50 (SMARCA4): 100 to 500 nM; Dmax (SMARCA4): < 50%

Q: `Cc1ncsc1-c1ccc([C@H](C)NC(=O)[C@@H]2C[C@@H](O)CN2C(=O)[C@@H](c2cc(OC3CCC(CN4CCC(c5ccc6c(c5)-n5c(nc(=O)c7c(Cl)cccc75)C6(C)C)CC4)CC3)no2)C(C)C)cc1` (stereo partly drawn) [Compound B38, (2S,4R)-1-((R)-2-(3-((4-((4-(4-chloro-7,7-dimethyl-5-oxo-5,7-dihydroindolo[1,2-a]quinazolin-10-yl)piperidin-1-yl)methyl)cyclohexyl)oxy)isoxazol-5-yl)-3-methylbutanoyl)-4-hydroxy-N-((S)-1-(4-(4-methylthiazol-5-yl)phenyl)ethyl)pyrrolidine-2-carboxamide] was tested. Which DC50 (SMARCA2) did it give?
A: The DC50 was less than 100 nM.

Q: What about the Dmax (SMARCA2) of the same compound?
A: The Dmax was greater than 90%.

Q: And the DC50 (SMARCA4)?
A: The DC50 was less than 100 nM.

Q: What about the Dmax (SMARCA4) of the same compound?
A: The Dmax was 70 to 90%.

Q: Which results are given for `Cc1ncsc1-c1ccc([C@H](C)NC(=O)[C@@H]2C[C@@H](O)CN2C(=O)[C@H](C(C)C)n2cc(CN3CCC(c4ccc5c(c4)C(C)(C)c4nc(=O)c6c(Cl)cccc6n4-5)CC3)nn2)cc1` [Compound B29, (2S,4R)-1-((S)-2-(4-((4-(4-chloro-7,7-dimethyl-5-oxo-5,7-dihydroindolo[1,2-a]quinazolin-9-yl)piperidin-1-yl)methyl)-1H-1,2,3-triazol-1-yl)-3-methylbutanoyl)-4-hydroxy-N—((S)-1-(4-(4-methylthiazol-5-yl)phenyl)ethyl)pyrrolidine-2-carboxamide]?
A: DC50 (SMARCA2): < 100 nM; Dmax (SMARCA2): > 90%; DC50 (SMARCA4): < 100 nM; Dmax (SMARCA4): > 90%

Q: With `Cc1ncsc1-c1ccc([C@H](CC(=O)NC2CCC(N3CCC(c4ccc5c(c4)-n4c(nc(=O)c6c(Cl)cccc64)C5(C)C)CC3)CC2)NC(=O)[C@@H]2C[C@@H](O)CN2C(=O)[C@@H](NC(=O)C2(F)CC2)C(C)(C)C)cc1` (stereo partly drawn) [Compound B31, (2S,4R)—N—((S)-3-((4-(4-(4-chloro-7,7-dimethyl-5-oxo-5,7-dihydroindolo[1,2-a]quinazolin-10-yl)piperidin-1-yl)cyclohexyl)amino)-1-(4-(4-methylthiazol-5-yl)phenyl)-3-oxopropyl)-1-((S)-2-(1-fluorocyclopropane-1-carboxamido)-3,3-dimethylbutanoyl)-4-hydroxypyrrolidine-2-carboxamide] as the compound, how does the DC50 (SMARCA2) read?
A: Its DC50 is 100 to 500 nM.

Q: And the Dmax (SMARCA2)?
A: Its Dmax is 70 to 90%.

Q: And the DC50 (SMARCA4)?
A: The DC50 was 100 to 500 nM.

Q: What about the Dmax (SMARCA4) of the same compound?
A: The Dmax was less than 50%.

Q: Which DC50 (SMARCA2) does the source give for `Cc1ncoc1-c1ccc([C@H](C)NC(=O)[C@@H]2C[C@@H](O)CN2C(=O)[C@@H](n2cc([C@H]3CC[C@H](CN4CCN(c5ccc6c(c5)-n5c(nc(=O)c7c(Cl)cccc75)C6(C)C)CC4)CC3)nn2)C(C)(C)C)cc1` [Compound B126, (2S,4R)-1-((S)-2-(4-((1r,4S)-4-((4-(4-chloro-7,7-dimethyl-5-oxo-5,7-dihydroindolo[1,2-a]quinazolin-10-yl)piperazin-1-yl)methyl)cyclohexyl)-1H-1,2,3-triazol-1-yl)-3,3-dimethylbutanoyl)-4-hydroxy-N-((S)-1-(4-(4-methyloxazol-5-yl)phenyl)ethyl)pyrrolidine-2-carboxamide] here?
A: Its DC50 is less than 100 nM.

Q: And the Dmax (SMARCA2)?
A: Its Dmax is greater than 90%.

Q: What about the DC50 (SMARCA4) of the same compound?
A: The DC50 was less than 100 nM.

Q: And the Dmax (SMARCA4)?
A: Its Dmax is 50 to 69%.

Q: What does the source list for `C[C@H](NC(=O)[C@@H]1C[C@@H](O)CN1C(=O)[C@@H](n1cc([C@H]2CC[C@H](CN3CCC(c4ccc5c(c4)-n4c(nc(=O)c6c(Cl)cccc64)C5(C)C)CC3)CC2)nn1)C(C)(C)C)c1ccc(-c2scnc2Cl)cc1` [Compound B117, (2S,4R)-1-((S)-2-(4-((1r,4S)-4-((4-(4-chloro-7,7-dimethyl-5-oxo-5,7-dihydroindolo[1,2-a]quinazolin-10-yl)piperidin-1-yl)methyl)cyclohexyl)-1H-1,2,3-triazol-1-yl)-3,3-dimethylbutanoyl)-N-((S)-1-(4-(4-chlorothiazol-5-yl)phenyl)ethyl)-4-hydroxypyrrolidine-2-carboxamide]?
A: DC50 (SMARCA2): < 100 nM; Dmax (SMARCA2): > 90%; DC50 (SMARCA4): 100 to 500 nM; Dmax (SMARCA4): 50 to 69%

Q: Which DC50 (SMARCA2) does the source give for `Cc1ncsc1-c1ccc([C@H](C)NC(=O)[C@@H]2C[C@@H](O)CN2C(=O)[C@@H](c2cc(OCCn3cc(-c4ccc5c(c4)C(C)(C)c4nc(=O)c6c(Cl)cccc6n4-5)cn3)no2)C(C)C)cc1` [Compound B52, (2S,4R)-1-((R)-2-(3-(2-(4-(4-chloro-7,7-dimethyl-5-oxo-5,7-dihydroindolo[1,2-a]quinazolin-9-yl)-1H-pyrazol-1-yl)ethoxy)isoxazol-5-yl)-3-methylbutanoyl)-4-hydroxy-N-((S)-1-(4-(4-methylthiazol-5-yl)phenyl)ethyl)pyrrolidine-2-carboxamide] here?
A: Its DC50 is less than 100 nM.

Q: What about the Dmax (SMARCA2) of the same compound?
A: The Dmax was 70 to 90%.

Q: And the DC50 (SMARCA4)?
A: Its DC50 is greater than 1000 nM.

Q: What about the Dmax (SMARCA4) of the same compound?
A: The Dmax was less than 50%.

Q: With `Cc1ncsc1-c1ccc([C@H](C)NC(=O)[C@@H]2C[C@@H](O)CN2C(=O)[C@H](C(C)C)n2cc([C@H]3CC[C@H](CN4CCN(c5ccc6c(c5)-n5c(nc(=O)c7c(Cl)cccc75)C6(C)C)CC4)CC3)nn2)cc1` [Compound B120, (2S,4R)-1-((S)-2-(4-((1r,4S)-4-((4-(4-chloro-7,7-dimethyl-5-oxo-5,7-dihydroindolo[1,2-a]quinazolin-10-yl)piperazin-1-yl)methyl)cyclohexyl)-1H-1,2,3-triazol-1-yl)-3-methylbutanoyl)-4-hydroxy-N-((S)-1-(4-(4-methylthiazol-5-yl)phenyl)ethyl)pyrrolidine-2-carboxamide] as the compound, how does the DC50 (SMARCA2) read?
A: Its DC50 is less than 100 nM.

Q: What about the Dmax (SMARCA2) of the same compound?
A: Its Dmax is greater than 90%.

Q: What about the DC50 (SMARCA4) of the same compound?
A: The DC50 was less than 100 nM.

Q: What about the Dmax (SMARCA4) of the same compound?
A: The Dmax was 70 to 90%.
